Data from ChEMBL document CHEMBL4477261, “Design, synthesis and evaluation of the multidrug resistance-reversing activity of pyridine acid esters of podophyllotoxin in human leukemia cells” (Bioorg Med Chem Lett, 2016).
Active and inactive are the calls of the source. The calls are words filed in the database; no cut-off is given here.

Key:
K562 [1] = assay: Antiproliferative activity against human K562 cells after 72 hrs by CCK8 assay; assay type: functional, cell-based; conditions: K562, 72 h
K562 [2] = assay: Resistance factor, ratio of IC50 for human K562/ADR cells to IC50 for human K562 cells; assay type: functional
K562/Adr [3] = assay: Antiproliferative activity against human K562/ADR cells after 72 hrs by CCK8 assay; assay type: functional, cell-based
K562/Adr [4] = assay: Induction of apoptosis in human K562/ADR cells assessed as late apoptotic cells at 0.1 uM after 48 hrs by Annexin V-APC/7-AAD staining based flow cytometry (reference value: 3.89%); assay type: functional
K562/Adr [5] = assay: Induction of apoptosis in human K562/ADR cells assessed as necrotic cells at 0.1 uM after 48 hrs by Annexin V-APC/7-AAD staining based flow cytometry (reference value: 2.47%); assay type: functional
K562/Adr [6] = assay: Induction of apoptosis in human K562/ADR cells assessed as live cells at 0.1 uM after 48 hrs by Annexin V-APC/7-AAD staining based flow cytometry (reference value: 91.65%); assay type: functional
K562/Adr [7] = assay: Induction of apoptosis in human K562/ADR cells assessed as chromatin condensation at 0.05 to 0.1 uM after 48 hrs by Hoechst 33342 staining based fluorescent microscopic analysis; assay type: functional, cell-based
K562 [8] = assay: Potency index, ratio of etoposide IC50 to compound IC50 for human K562 cells; assay type: functional
[9] = molecular target: T1, Mitogen-activated protein kinase; ERK1/ERK2 (Homo sapiens) (UniProt P27361+P28482); assay: Activation of ERK1/2 signalling in human K562/ADR cells assessed as suppression of CyclinB1 protein expression at 0.1 uM after 48 hrs by Western blot analysis relative to control; assay type: cell-based
K562/Adr [10] = assay: Induction of apoptosis in human K562/ADR cells assessed as early apoptotic cells at 0.05 uM after 48 hrs by Annexin V-APC/7-AAD staining based flow cytometry (reference value: 1.99%); assay type: functional
K562/Adr [11] = assay: Cell cycle arrest in human K562/ADR cells assessed as accumulation in S phase at 0.1 uM after 48 hrs by propidium iodide staining based flow cytometry (reference value: 43.39 +/- 0.69%); assay type: functional
K562/Adr [12] = assay: Effect on total ERK1/2 protein expression level in human K562/ADR cells at 0.05 uM after 48 hrs by Western blot analysis relative to control; assay type: ADME, cell-based
K562/Adr [13] = assay: Induction of apoptosis in human K562/ADR cells assessed as early apoptotic cells at 0.1 uM after 48 hrs by Annexin V-APC/7-AAD staining based flow cytometry (reference value: 1.99%); assay type: functional
[14] = molecular target: T1, Mitogen-activated protein kinase; ERK1/ERK2 (Homo sapiens); assay: Activation of ERK1/2 signalling in human K562/ADR cells assessed as increase in cleaved caspase-9 expression at 0.1 uM after 48 hrs by Western blot analysis relative to control; assay type: cell-based
K562/Adr [15] = assay: Induction of apoptosis in human K562/ADR cells assessed as nuclear fragmentation at 0.05 to 0.1 uM after 48 hrs by Hoechst 33342 staining based fluorescent microscopic analysis; assay type: functional, cell-based
K562/Adr [16] = assay: Potency index, ratio of podophyllotoxin IC50 to compound IC50 for human K562/ADR cells; assay type: functional
[17] = molecular target: T1, Mitogen-activated protein kinase; ERK1/ERK2 (Homo sapiens); assay: Activation of ERK1/2 signalling in human K562/ADR cells assessed as suppression of CDK1 protein expression at 0.05 uM after 48 hrs by Western blot analysis relative to control; assay type: cell-based
[18] = molecular target: T1, Mitogen-activated protein kinase; ERK1/ERK2 (Homo sapiens); assay: Activation of ERK1/2 signalling in human K562/ADR cells assessed as increase in cleaved caspase-3 expression at 0.1 uM after 48 hrs by Western blot analysis relative to control; assay type: cell-based
[19] = molecular target: T1, Mitogen-activated protein kinase; ERK1/ERK2 (Homo sapiens); assay: Activation of ERK1/2 signalling in human K562/ADR cells assessed as suppression of CDK1 protein expression at 0.1 uM after 48 hrs by Western blot analysis relative to control; assay type: cell-based
[20] = molecular target: T1, Mitogen-activated protein kinase; ERK1/ERK2 (Homo sapiens); assay: Activation of ERK1/2 signalling in human K562/ADR cells assessed as increase in cleaved caspase-8 expression at 0.1 uM after 48 hrs in presence of ERK1/2 inhibitor U0126 by Western blot analysis relative to control; assay type: cell-based
[21] = molecular target: T1, Mitogen-activated protein kinase; ERK1/ERK2 (Homo sapiens); assay: Activation of ERK1/2 signalling in human K562/ADR cells assessed as suppression of P-gp expression at 0.05 uM after 48 hrs by Western blot analysis relative to control; assay type: cell-based
[22] = molecular target: T1, Mitogen-activated protein kinase; ERK1/ERK2 (Homo sapiens); assay: Activation of ERK1/2 signalling in human K562/ADR cells assessed as increase in cleaved caspase-8 expression at 0.05 uM after 48 hrs by Western blot analysis relative to control; assay type: cell-based
K562/Adr [23] = assay: Potency index, ratio of etoposide IC50 to compound IC50 for human K562/ADR cells; assay type: functional
K562/Adr [24] = assay: Cell cycle arrest in human K562/ADR cells assessed as accumulation in S phase at 0.05 uM after 48 hrs by propidium iodide staining based flow cytometry (reference value: 43.39 +/- 0.69%); assay type: functional
[25] = molecular target: T1, Mitogen-activated protein kinase; ERK1/ERK2 (Homo sapiens); assay: Induction of ERK1/2 phosphorylation in human K562/ADR cells at 0.1 uM after 48 hrs in presence of ERK1/2 inhibitor U0126 by Western blot analysis relative to control; assay type: cell-based
K562/Adr [26] = assay: Effect on total ERK1/2 protein expression level in human K562/ADR cells at 0.1 uM after 48 hrs in presence of ERK1/2 inhibitor U0126 by Western blot analysis relative to control; assay type: ADME, cell-based
[27] = molecular target: T1, Mitogen-activated protein kinase; ERK1/ERK2 (Homo sapiens); assay: Activation of ERK1/2 signalling in human K562/ADR cells assessed as increase in cleaved caspase-9 expression at 0.05 uM after 48 hrs by Western blot analysis relative to control; assay type: cell-based
K562/Adr [28] = assay: Induction of apoptosis in human K562/ADR cells assessed as necrotic cells at 0.05 uM after 48 hrs by Annexin V-APC/7-AAD staining based flow cytometry (reference value: 2.47%); assay type: functional
K562/Adr [29] = assay: Potency index, ratio of adriamycin IC50 to compound IC50 for human K562/ADR cells; assay type: functional
[30] = molecular target: T1, Mitogen-activated protein kinase; ERK1/ERK2 (Homo sapiens); assay: Activation of ERK1/2 signalling in human K562/ADR cells assessed as suppression of P-gp expression at 0.1 uM after 48 hrs in presence of ERK1/2 inhibitor U0126 by Western blot analysis relative to control; assay type: cell-based
[31] = molecular target: T1, Mitogen-activated protein kinase; ERK1/ERK2 (Homo sapiens); assay: Activation of ERK1/2 signalling in human K562/ADR cells assessed as suppression of CyclinB1 protein expression at 0.1 uM after 48 hrs in presence of ERK1/2 inhibitor U0126 by Western blot analysis relative to control; assay type: cell-based
[32] = molecular target: T1, Mitogen-activated protein kinase; ERK1/ERK2 (Homo sapiens); assay: Induction of ERK1/2 phosphorylation in human K562/ADR cells at 0.05 uM after 48 hrs by Western blot analysis relative to control; assay type: cell-based
[33] = molecular target: T1, Mitogen-activated protein kinase; ERK1/ERK2 (Homo sapiens); assay: Activation of ERK1/2 signalling in human K562/ADR cells assessed as increase in cleaved caspase-3 expression at 0.1 uM after 48 hrs in presence of ERK1/2 inhibitor U0126 by Western blot analysis relative to control; assay type: cell-based
K562/Adr [34] = assay: Effect on total ERK1/2 protein expression level in human K562/ADR cells at 0.1 uM after 48 hrs by Western blot analysis relative to control; assay type: ADME, cell-based
[35] = molecular target: T1, Mitogen-activated protein kinase; ERK1/ERK2 (Homo sapiens); assay: Activation of ERK1/2 signalling in human K562/ADR cells assessed as suppression of P-gp expression at 0.1 uM after 48 hrs by Western blot analysis relative to control; assay type: cell-based
[36] = molecular target: T1, Mitogen-activated protein kinase; ERK1/ERK2 (Homo sapiens); assay: Activation of ERK1/2 signalling in human K562/ADR cells assessed as suppression of CDK1 protein expression at 0.1 uM after 48 hrs in presence of ERK1/2 inhibitor U0126 by Western blot analysis relative to control; assay type: cell-based
[37] = molecular target: T1, Mitogen-activated protein kinase; ERK1/ERK2 (Homo sapiens); assay: Induction of ERK1/2 phosphorylation in human K562/ADR cells at 0.1 uM after 48 hrs by Western blot analysis relative to control; assay type: cell-based
[38] = molecular target: T1, Mitogen-activated protein kinase; ERK1/ERK2 (Homo sapiens); assay: Activation of ERK1/2 signalling in human K562/ADR cells assessed as increase in cleaved caspase-8 expression at 0.1 uM after 48 hrs by Western blot analysis relative to control; assay type: cell-based
[39] = molecular target: T1, Mitogen-activated protein kinase; ERK1/ERK2 (Homo sapiens); assay: Activation of ERK1/2 signalling in human K562/ADR cells assessed as suppression of CyclinB1 protein expression at 0.05 uM after 48 hrs by Western blot analysis relative to control; assay type: cell-based
K562/Adr [40] = assay: Induction of apoptosis in human K562/ADR cells assessed as late apoptotic cells at 0.05 uM after 48 hrs by Annexin V-APC/7-AAD staining based flow cytometry (reference value: 3.89%); assay type: functional
[41] = molecular target: T1, Mitogen-activated protein kinase; ERK1/ERK2 (Homo sapiens); assay: Activation of ERK1/2 signalling in human K562/ADR cells assessed as increase in cleaved caspase-3 expression at 0.05 uM after 48 hrs by Western blot analysis relative to control; assay type: cell-based
K562/Adr [42] = assay: Induction of apoptosis in human K562/ADR cells assessed as live cells at 0.05 uM after 48 hrs by Annexin V-APC/7-AAD staining based flow cytometry (reference value: 91.65%); assay type: functional
[43] = molecular target: T1, Mitogen-activated protein kinase; ERK1/ERK2 (Homo sapiens); assay: Activation of ERK1/2 signalling in human K562/ADR cells assessed as increase in cleaved caspase-9 expression at 0.1 uM after 48 hrs in presence of ERK1/2 inhibitor U0126 by Western blot analysis relative to control; assay type: cell-based
K562 [44] = assay: Potency index, ratio of adriamycin IC50 to compound IC50 for human K562 cells; assay type: functional

T1 sequence (P27361 whole entry, looked up): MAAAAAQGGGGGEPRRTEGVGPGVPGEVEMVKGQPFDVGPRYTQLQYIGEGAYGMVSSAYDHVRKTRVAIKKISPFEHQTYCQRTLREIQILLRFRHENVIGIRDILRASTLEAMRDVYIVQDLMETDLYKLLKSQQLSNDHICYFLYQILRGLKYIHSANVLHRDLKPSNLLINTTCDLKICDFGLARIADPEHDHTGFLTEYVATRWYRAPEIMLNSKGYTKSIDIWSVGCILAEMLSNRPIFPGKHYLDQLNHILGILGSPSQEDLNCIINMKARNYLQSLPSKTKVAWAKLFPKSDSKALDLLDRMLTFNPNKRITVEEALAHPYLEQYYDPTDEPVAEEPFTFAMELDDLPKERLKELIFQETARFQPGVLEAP
T1 sequence (P28482 whole entry, looked up): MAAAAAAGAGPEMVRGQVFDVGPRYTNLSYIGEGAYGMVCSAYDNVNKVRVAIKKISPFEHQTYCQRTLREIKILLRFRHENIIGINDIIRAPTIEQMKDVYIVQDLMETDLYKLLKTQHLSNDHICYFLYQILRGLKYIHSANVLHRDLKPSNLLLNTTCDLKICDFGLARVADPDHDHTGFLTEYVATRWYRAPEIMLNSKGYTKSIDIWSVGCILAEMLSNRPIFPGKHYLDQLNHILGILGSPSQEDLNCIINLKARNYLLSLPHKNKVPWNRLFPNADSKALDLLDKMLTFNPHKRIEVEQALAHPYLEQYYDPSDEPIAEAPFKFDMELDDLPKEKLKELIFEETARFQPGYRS

Structure (SMILES): COc1cc([C@@H]2c3cc4c(cc3[C@H](OC(=O)c3ccc(Br)cn3)[C@H]3COC(=O)[C@H]23)OCO4)cc(OC)c1OC
- IC50 (K562 [1]): 19 nM
- Ratio IC50 (K562 [2]): 8.421
- IC50 (K562/Adr [3]): 160 nM

Structure (SMILES): COc1cc([C@@H]2c3cc4c(cc3[C@H](OC(=O)c3cccc(Br)n3)[C@H]3COC(=O)[C@H]23)OCO4)cc(OC)c1OC
- Activity (K562/Adr [4]): 44.02%
- Activity (K562/Adr [5]): 5.82%
- Activity (K562/Adr [6]): 41.01%
- Activity (K562/Adr [7]): Active
- Ratio IC50 (K562 [8]): 16.52
- fold change (FC) [9]: 0.15
- Activity (K562/Adr [10]): 7.42%
- Activity (K562/Adr [11]): 64.17%
- fold change (FC) (K562/Adr [12]): 0.94
- IC50 (K562 [1]): 25 nM
- Activity (K562/Adr [13]): 9.15%
- fold change (FC) [14]: 0.75
- Activity (K562/Adr [15]): Active
- Ratio IC50 (K562/Adr [16]): 0.54
- fold change (FC) [17]: 0.81
- fold change (FC) [18]: 0.64
- Ratio IC50 (K562 [2]): 1.84
- fold change (FC) [19]: 0.46
- fold change (FC) [20]: 0.4
- fold change (FC) [21]: 0.26
- fold change (FC) [22]: 0.38
- Ratio IC50 (K562/Adr [23]): 44.02
- Activity (K562/Adr [24]): 53.74%
- fold change (FC) [25]: 0.07
- fold change (FC) (K562/Adr [26]): 0.65
- fold change (FC) [27]: 0.49
- Activity (K562/Adr [28]): 6.37%
- Ratio IC50 (K562/Adr [29]): 408.23
- fold change (FC) [30]: 0.31
- fold change (FC) [31]: 0.2
- fold change (FC) [32]: 0.32
- fold change (FC) [33]: 0.52
- IC50 (K562/Adr [3]): 46 nM
- fold change (FC) (K562/Adr [34]): 0.89
- fold change (FC) [35]: 0.1
- fold change (FC) [36]: 0.71
- fold change (FC) [37]: 0.71
- fold change (FC) [38]: 0.57
- fold change (FC) [39]: 0.25
- Activity (K562/Adr [40]): 18.84%
- fold change (FC) [41]: 0.47
- Activity (K562/Adr [42]): 67.37%
- fold change (FC) [43]: 0.59
- Ratio IC50 (K562 [44]): 8.8

Structure (SMILES): COc1cc([C@@H]2c3cc4c(cc3[C@H](OC(=O)c3ccc(Br)nc3)[C@H]3COC(=O)[C@H]23)OCO4)cc(OC)c1OC
- IC50 (K562 [1]): 256 nM
- Ratio IC50 (K562 [2]): 1.347
- IC50 (K562/Adr [3]): 345 nM
